This is an account of results in patent US7947741B2, “Use and administration of bacterial efflux pump inhibitors” (Mpex Pharmaceuticals, Inc., priority 2004, dated 2011).

The MIC50 is an inhibitory concentration at the 50% level, which refers to growth in some studies and to a panel of isolates in others. For orientation: MIC90 means an inhibitory concentration at the 90% level, which refers to growth in some studies and to a panel of isolates in others.

The test system of one series is PAM1723 cells. In words: EtBr uptake (proton gradient disruption). It counts as cell-based, Pseudomonas aeruginosa. As to conditions: CCCP 50 μg/ml for 15 minutes, pentamidine 80 μg/ml. As for the experimental part:
A proton gradient is necessary for efflux pump activity. Accordingly, compounds that are capable of proton gradient disruption will appear as efflux inhibitors in accumulation assays. This possibility was tested for pentamidine. EtBr is a substrate of the MexAB-OprM efflux pump from P. aeruginosa as evident from the differential rates of its uptake in PAM 1723 and PAM 1626, MexAB-OprM overexpressing or lacking strains, respectively. CCCP is a well-known protonophore, which rapidly dissipates the proton gradient.

The subject of series [1] is P. aeruginosa PAM1723 (MexAB-OprM overexpressed). It counts as cell-based, Pseudomonas aeruginosa. Particulars: for MIC, No Pentamidine / MIC, Pentamidine (40 μg/ml): PAM1723 (MexAB-OprM overexpressed); for MIC, Pentamidine (40 μg/ml): in the presence of pentamidine 40 μg/ml.
For series [2], the system named is P. aeruginosa PAM1154 (MexAB-OprM deleted). It counts as cell-based, Pseudomonas aeruginosa.
Series [3] deals with P. aeruginosa PAM1020 (pump status none; target mutation none). In words: microbe, parasite or virus in culture. It counts as cell-based, Pseudomonas aeruginosa. As to conditions: Pseudomonas aeruginosa. An excerpt: (§1) In addition to increased efflux, resistance to fluoroquinolones may be due to target mutations (gyrase and topoisimerase IV) or due to combination of these two resistance mechanisms in a single bacterial cell.

In series [4] the test system is P. aeruginosa PAM1032 (MexAB-OprM). Description: microbe, parasite or virus in culture. It counts as cell-based, Pseudomonas aeruginosa. Particulars: Pseudomonas aeruginosa.
Source text: as §1

The subject of series [5] is P. aeruginosa PAM1033 (MexCD-OprJ). In words: microbe, parasite or virus in culture. It counts as cell-based, Pseudomonas aeruginosa. Particulars: Pseudomonas aeruginosa.
Source text: as §1

For series [6], the system named is P. aeruginosa PAM1034 (MexEF-OprN). In words: microbe, parasite or virus in culture. It counts as cell-based, Pseudomonas aeruginosa. As to conditions: Pseudomonas aeruginosa.
Source text: as §1

Series [7] relates to P. aeruginosa PAM1482 (MexCD-OprJ; gyrA (Asp87Tyr)). Description: microbe, parasite or virus in culture. It counts as cell-based, Pseudomonas aeruginosa. Particulars: Pseudomonas aeruginosa.
Source text: as §1

Series [8] concerns P. aeruginosa PAM1491 (MexEF-OprN; gyrA (Asp87Tyr)). In words: microbe, parasite or virus in culture. Particulars: Pseudomonas aeruginosa. It counts as cell-based, Pseudomonas aeruginosa.
Source text: as §1

The test system of series [9] is P. aeruginosa PAM1548 (pump status none; gyrA (Thr83Ile)). Description: microbe, parasite or virus in culture. As to conditions: Pseudomonas aeruginosa. It counts as cell-based, Pseudomonas aeruginosa.
Source text: as §1

Series [10] deals with P. aeruginosa PAM1569 (MexCD-OprJ; gyrA (Thr83Ile)). In words: microbe, parasite or virus in culture. It counts as cell-based, Pseudomonas aeruginosa. Particulars: Pseudomonas aeruginosa.
Source text: as §1

Series [11] concerns P. aeruginosa PAM1570 (MexEF-OprN; gyrA (Thr83Ile)). Description: microbe, parasite or virus in culture. It counts as cell-based, Pseudomonas aeruginosa. Particulars: Pseudomonas aeruginosa.
Source text: as §1

Series [12] concerns P. aeruginosa PAM1438 (MexAB-OprM, MexCD-OprJ). Description: microbe, parasite or virus in culture. It counts as cell-based, Pseudomonas aeruginosa. Particulars: Pseudomonas aeruginosa. As for the experimental part: (§2) A set of strains that simultaneously over-expressed pairs or triplicates of pumps, e.g. PAM2302 and PAM2303 was tested. Simultaneous over-expression of efflux pumps has been recently detected in clinical strains.

For series [13], the system named is P. aeruginosa PAM2281 (MexAB-OprM, MexEF-OprN). Description: microbe, parasite or virus in culture. It counts as cell-based, Pseudomonas aeruginosa. As to conditions: Pseudomonas aeruginosa. How it is done: as §2
Series [14] has as its system P. aeruginosa PAM2282 (MexAB-OprM, MexEF-OprN). In words: microbe, parasite or virus in culture. It counts as cell-based, Pseudomonas aeruginosa. Particulars: Pseudomonas aeruginosa. How it is done:
as §2

In series [15] the test system is P. aeruginosa PAM2302 (MexAB-OprM, MexCD-OprJ, MexEF-OprN). In words: microbe, parasite or virus in culture. It counts as cell-based, Pseudomonas aeruginosa. Particulars: Pseudomonas aeruginosa. As for the experimental part: as §2
For series [16], the system named is P. aeruginosa PAM2466 (MexAB-OprM, MexXY-OprM). In words: microbe, parasite or virus in culture. As to conditions: Pseudomonas aeruginosa. It counts as cell-based, Pseudomonas aeruginosa. How it is done:
as §2

The test system of series [17] is P. aeruginosa PAM1723 (nalB, overexpressing MexAB-OprM). Description: microbe, parasite or virus in culture. It counts as cell-based, Pseudomonas aeruginosa. As to conditions: Pseudomonas aeruginosa, read-out: Levofloxacin MIC in the presence of inhibitor, PAM1723; inhibitor 0 μg/ml. As for the experimental part:
Stock solutions were further diluted, according to the needs of a particular assay, in Mueller Hinton Broth (MHB). Stock solution was stored at −80° C.
The checkerboard assay was performed in microtiter plates. […] The result of these manipulations is that each well of the microtiter plate contains a unique combination of concentrations of the two agents. The assay was performed in MHB with a final bacterial inoculum of 5×10^5 CFU/ml (from an early-log phase culture). Microtiter plates were incubated during 20 h at 35° C. and were read using a microtiterplate reader (Molecular Devices) at 650 nm as well as visual observation using a microtiter plate reading mirror.
The test organisms used was PAM1020, which is a wild type strain of P. aeruginosa expressing the basal level of MexAB-OprM, as well as PAM1723, PAM1738, and PAM1753, overexpressing the MexAB-OprM, MexCD-OprJ, and MexEF-OprN pump, respectively.
Efflux pump inhibitory activity of several commercially available diamidine analogs was evaluated using the checkerboard assay of Example 1 against the strain of P. aeruginosa overexpressing the MexAB-OprM efflux pump.

In series [18] the test system is 108 recent clinical isolates of P. aeruginosa obtained from cystic fibrosis patients. Description: Susceptibility of cystic fibrosis clinical isolates (broth-micro-dilution, NCCLS). It counts as cell-based, Pseudomonas aeruginosa. As to conditions: 108 CF isolates; combinations with 20 μg/ml of pentamidine. (In general: Dilution methods test growth across graded concentrations, often in twofold steps.)

For series [19], the system named is outer membrane of P. aeruginosa strain PAM2005. Particulars: Mg2+ free buffer, nitrocefin 64 μg/ml.
The conditions of series [20]: intravenous infusion; cited from earlier work.
The mark [21] stands for this setting: read-out: Ciprofloxacin MIC w/o pentamidine.
Setting [22] is: read-out: Levofloxacin MIC w/o pentamidine.

≈ marks a conversion by molar mass, not a printed value. Like-named read-outs stand apart in the source and are kept apart here. Where a SMILES comes first, the peptide text is derived from it. Bridges are numbered along the chain shown (N, C = ends). [ ]: non-standard residue; d: D form. Dab = NCC[C@H](N)C(=O)O

Turning to `N#CC(C#N)=NNc1cccc(Cl)c1` [CCCP], the EtBr uptake result in the series on PAM1723 cells is on record as “dramatic increase of EtBr uptake”.
On to `O=C(O)c1cn(C2CC2)c2cc(N3CCNCC3)c(F)cc2c1=O` [Ciprofloxacin, ciprofloxacin], for which the results for the MIC, No Pentamidine in series [1] and in [2] were 0.25 µg/mL (≈ 0.754 µM) and 0.008 µg/mL (≈ 0.0241 µM), respectively. Moreover, the “MIC, Pentamidine (40 μg/ml)” value in [1] was 0.03. For the same molecule, in [1] (PAM1723, pentamidine 40 μg/ml), the “decrease of the MIC by pentamidine” value stood at 8 fold. The MIC in series [3] (setting [21]) worked out at 0.06 µg/mL; in [4] (setting [21]), 0.5 µg/mL; in series [5] (setting [21]) it was 1 µg/mL; in series [6] (setting [21]), 1 µg/mL; in series [7] (setting [21]) it was 8 µg/mL; in series [8] (setting [21]) it was 8 µg/mL. Besides, the MIC in [9] (setting [21]) came to 2 µg/mL; in series [10] (setting [21]), 16 µg/mL; in series [11] (setting [21]), 16 µg/mL; in [12] (setting [21]), 16 µg/mL (≈ 48.3 µM); in [13] (setting [21]), 8 µg/mL (≈ 24.1 µM); in [14] (setting [21]) it was 2 µg/mL (≈ 6.04 µM). Also, the MIC in series [15] (setting [21]) came out at 2 µg/mL (≈ 6.04 µM); in series [16] (setting [21]), 0.5 µg/mL (≈ 1.51 µM).
For the molecule `C[C@H]1COc2c(N3CCN(C)CC3)c(F)cc3c(=O)c(C(=O)O)cn1c23` [Levofloxacin, levofloxacin], the MIC in series [17] amounted to 2 µg/mL; in series [3] (setting [22]), 0.25 µg/mL; in [4] (setting [22]), 2 µg/mL; in series [5] (setting [22]) it was 4 µg/mL; in series [6] (setting [22]) it was 4 µg/mL; in [7] (setting [22]), 16 µg/mL. Further, the MIC was 32 µg/mL in series [8] (setting [22]); 2 µg/mL in series [9] (setting [22]); 32 µg/mL in series [10] (setting [22]); 32 µg/mL in series [11] (setting [22]); 4 µg/mL (≈ 11.1 µM) in series [12] (setting [22]); 8 µg/mL (≈ 22.1 µM) in series [13] (setting [22]). The MIC in series [14] (setting [22]) was determined as 8 µg/mL (≈ 22.1 µM); in series [15] (setting [22]), 8 µg/mL (≈ 22.1 µM); in series [16] (setting [22]), 2 µg/mL (≈ 5.53 µM). Moreover, the MIC50 in series [18] was 2 µg/mL. The MIC90 in [18] amounted to 8 µg/mL.
Take `CC(C)C[C@@H]1NC(=O)[C@@H](Cc2ccccc2)NC(=O)[C@H](CCN)NC(=O)[C@@H](NC(=O)[C@H](CCN)NC(=O)[C@@H](N)[C@@H](C)O)CCNC(=O)[C@H]([C@@H](C)O)NC(=O)[C@H](CCN)NC(=O)[C@H](CCN)NC1=O` [PMBN] (H-T[Dab][Dab][Dab][dF]L[Dab][Dab]T; lactam 3-C; N-terminus assumed): in series [19], the “IC50, permeabilization of the outer membrane” value is less than 2 µg/mL.
Turning to `NC[C@H]1O[C@H](O[C@H]2[C@H](O)[C@@H](O[C@H]3O[C@H](CO)[C@@H](O)[C@H](N)[C@H]3O)[C@H](N)C[C@@H]2N)[C@H](N)C[C@@H]1O` [Tb, tobramycin], in [1], the “decrease of the MIC by pentamidine” value is listed as “almost no effect”; the MIC, No Pentamidine is 0.06 µg/mL (≈ 0.128 µM); the “MIC, Pentamidine (40 μg/ml)” value is 0.03. The MIC, No Pentamidine in series [2] turned out to be 0.03 µg/mL (≈ 0.0642 µM).
`N=C(N)c1ccc(OCCCCCOc2ccc(C(=N)N)cc2)cc1` [pentamidine isethionate, 4,4′-diamidino-diphenoxypentane di(β-hydroxyethanesulfonate)]: the “plasma levels during the first two hours following an intravenous infusion” value in series [20] was “one-twentieth of peak levels”.
